From US9802990B2, “Functional peptides for obesity disorders” (DANONE, S.A., priority 2013, dated 2017)
Where no end group is shown, it is not given here.

Key:
PL (pancreatic lipase) = biological target: T1, PL (pancreatic lipase) (Sus scrofa, UniProt P00591); assay: PL inhibition assay with 4-methyl umbelliferyl oleate (4MUO), fluorescence; type: biochemical; conditions: synthesized peptides
T1 sequence (P00591 1-450): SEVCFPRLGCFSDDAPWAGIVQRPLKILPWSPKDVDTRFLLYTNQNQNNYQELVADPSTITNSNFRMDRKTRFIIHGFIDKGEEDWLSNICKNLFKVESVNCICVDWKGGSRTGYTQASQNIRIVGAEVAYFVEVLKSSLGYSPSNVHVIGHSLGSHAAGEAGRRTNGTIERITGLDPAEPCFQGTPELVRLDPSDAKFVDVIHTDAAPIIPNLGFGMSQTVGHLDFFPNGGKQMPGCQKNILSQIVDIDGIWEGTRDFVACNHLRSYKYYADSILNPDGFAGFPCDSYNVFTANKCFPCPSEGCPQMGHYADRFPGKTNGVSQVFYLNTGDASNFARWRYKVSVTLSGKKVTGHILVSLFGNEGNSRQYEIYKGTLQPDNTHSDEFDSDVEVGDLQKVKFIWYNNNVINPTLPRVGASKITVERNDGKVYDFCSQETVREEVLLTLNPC
Description: Inhibition of PL was determined using 4-methyl umbelliferyl oleate (4MUO) as substrate as described by Sugiyama et al. (Oligomeric procyanidins in apple polyphenol are main active components for inhibition of pancreatic lipase and triglyceride absorption. J Agric Food Chem (2007); 55: 4604-4609) with some modifications. Aliquots of 25 μl of each peptide extract were incubated with 25 μl of PL solution (1 mg/ml) and preincubated for 10 minutes at 26° C. with stirring of 500 rpm. Reaction was initiated by adding 50 μl of 4MUO (0.1 mM) dissolved in Dulbecco's buffer. After incubation at 26° C. for 20 minutes with constant stirring (500 rpm) the reaction was stopped by adding 100 μl of 0.1 M sodium citrate buffer (pH 4.2). The amount of 4-methyl umbelliferone released by the enzyme was determined by fluorescence. Peptide extracts were used as inhibitors in the enzymatic assay but had to be diluted 1/20 or 1/50 because of the interference between the fluorescence and the buffer containing the peptides.

[1] = In vitro enzymatic digestion model of the digestive tract (pepsin, pancreatin, bile), HPLC; type: in vitro ADME
Description: An in vitro enzymatic digestion model of an in vivo digestive tract was developed for mimicking the physiological conditions to check and certify that each selected peptide was differently degraded throughout the gastro-intestinal tract by the digestive process. Pepsin, pancreatin and bile concentrations were optimized using a published experimental design (Granado-Lorencio et al (2007). J. Agri. Food. Chem., 55, 6387-6394).

[2] = system: C. elegans wild type strain N2; assay: C. elegans body fat reduction, Nile Red staining; type: in vivo, Caenorhabditis elegans
Description: The ability to reduce body fat content in the nematode C. elegans was analyzed in a group of 5 peptide extracts previously obtained from glycinin (see Table 4). These samples were selected by their high effect on PL and PLA2 in vitro inhibition. Specifically, 5 peptide extracts were selected from the PLA2 inhibition assay (M20G, M5G, M31G, M27G and M29G). Body fat content was analyzed in the C. elegans wild type strain N2 by Red Nile dying of living nematodes. Experiments were carried out with age-synchronized populations, starting from egg-stage to young adult stage (3-day adults). During the experiments, worms were cultured in the NGM agar plates as control condition, NGM with the corresponding peptide extracts (100 μL/plate) and NGM with 6 μg/mL of Orlistat as positive control. Nile Red was added on top of the NG plates already seeded with Escherichia coli OP50 strain to a final concentration of 0.05 μg/ml. After incubation at 20° C., young adult worms (60 worms per condition) were taken to measure the in vivo fluorescence in a VersaFluor™ Fluorometer System. Fluorescence obtained in treated worms was calculated from fluorescence of worms fed in control conditions (reference sample). Experiments were carried out by duplicate.
From these purified fractions, a total of 11 peptides were selected to be synthesized and evaluated in vivo in the obesity model of C. elegans (Table 9). All peptides were evaluated at 1 μg/mL of final concentration.
We selected 5 peptides obtained from hydrolysis of glycinin with strain 6 (P8a, P6a, P14c, P16f, P14b) The peptides from glycinin were added to a soy fermented product (Savia® from Danone) both alone or mixed at final concentration of 1 μg/mL. Nematodes were fed with these products and then total lipids were quantified by Nile Red staining.

[3] = biological target: PLA2 (pancreatic phospholipase A2) (Homo sapiens, UniProt P04054); assay: PLA2 inhibition assay by HPLC with DOPC as substrate; type: biochemical
Sequence of PLA2 (pancreatic phospholipase A2) (P04054 23-148, species assumed): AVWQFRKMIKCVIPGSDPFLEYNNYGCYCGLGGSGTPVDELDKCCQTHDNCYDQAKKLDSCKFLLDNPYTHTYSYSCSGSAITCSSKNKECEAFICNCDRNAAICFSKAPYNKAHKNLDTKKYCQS
Description: Inhibition of PLA2 enzyme was determined by High Performance Liquid Chromatography (HPLC) using 1,2-dioleoyl-sn-glycero-3-phosphocholine (DOPC) as substrate as described by Singh et al. (A rapid isocratic high-performance liquid chromatography method for determination of cholesterol and 1,2-dioleoyl-sn-glycero-3-phosphocholine. Journal of Chromatography (2005); 1073:347-353). Waters 2695 HPLC with Waters 2996 Photodiode detector Array and a C8 column Hypersil BDS (250×4.6 mm, […]) were used carrying out an eluent isocratic method formed by a mixture of ammonium phosphate buffer 50 mM pH 2.7:methanol (15:85, v/v).

Question: For SVIKPPTD [Peptide P8a, SVIKPPTD], which IC50 (PL (pancreatic lipase)) is on record?
Answer: 68.9 µM

Question: What about the “Degradation (%)” value ([1]; Gastric phase 30 min.) of the same sequence?
Answer: −1.3%

Question: And the “Degradation (%)” value ([1]; Gastric phase 120 min.)?
Answer: −1.0%

Question: What about the “degradation in the in vitro digestion model (in words)” value ([1]; HPLC, completely degraded = at the beginning of the intestinal phase, resistant ones finally degraded at the end) of the same sequence?
Answer: resistant until the end of the process

Question: What about the metabolised at 0.25 h ([1]; Intestinal phase 15 min., read-out: Degradation (%)) of the same sequence?
Answer: 51.2%

Question: What about the metabolised at 0.5 h ([1]; Intestinal phase 30 min., read-out: Degradation (%)) of the same sequence?
Answer: 71.6%

Question: And the metabolised at 1 h ([1]; Intestinal phase 60 min., read-out: Degradation (%))?
Answer: 90.7%

Question: And the metabolised at 2 h ([1]; Intestinal phase 120 min., read-out: Degradation (%))?
Answer: 100%

Question: And the metabolised at 5 min ([1]; Oral phase 5 min., read-out: Degradation (%))?
Answer: 1.7%

Question: And the “% Fluorescence Reduction” value ([2]; nematodes fed NG with peptides alone or in Savia soy fermented product, alone or mixed, 1 μg/mL final concentration, Nile Red)?
Answer: 41.7 ± 4.02%

Question: What about the “% Fluorescence Reduction C. elegans” value ([2]; synthesized peptides at 1 μg/mL of final concentration) of the same sequence?
Answer: 44.67 ± 10.5%

Question: What about the “Percentage of PLA2 inhibition” value ([3]; peptide 0.035 mg/ml) of the same sequence?
Answer: 12.7 ± 6.1%

Question: And the “Percentage of PLA2 inhibition” value ([3]; peptide 0.35 mg/ml)?
Answer: 12.9 ± 3.9%

Question: And the “Percentage of PLA2 inhibition” value ([3]; peptide 2 mg/ml)?
Answer: 26.0 ± 6.4%

Question: And the “Percentage of PLA2 inhibition” value ([3]; peptide 3.5 mg/ml)?
Answer: 20.1 ± 7.7%
